Patent publication US20020045668A1, “Compositions for sustained release of analgesic agents, and methods of making and using the same” (priority 2000, published 2002)

settings: cited from earlier work

Row | Structure (SMILES) | Solubility in Organic Solvents
1 | CC(C)CCC[C@@H](C)[C@H]1CC[C@H]2[C@@H]3CC=C4C[C@@H](O)CC[C@]4(C)[C@H]3CC[C@]12C [Cholesterol] | 1 in 4.5 chloroform
2 | CCCCC(CC)COC(=O)CC(C(=O)OCC(CC)CCCC)S(=O)(=O)O (stereo not drawn) [Docusate] | 1 in 1
3 | OC[C@@H](O)[C@@H](O)[C@H](O)[C@H](O)CO [Mannitol] | Practically insoluble
4 | O=C1NS(=O)(=O)c2ccccc21 [Saccharin] | Slightly soluble
5 | C/C=C/C=C/C(=O)O [Sorbic acid] | 1 in 15 chloroform

settings: data not shown

Row | Structure (SMILES) | T80% (time required for 80% of lidocaine to be released)
6 | CCN(CC)CC(=O)Nc1c(C)cccc1C [pure lidocaine, lidocaine] | less than 30 minutes
